# Data taken from patent EP0931078B1, “NOVEL TRICYCLIC PIPERIDINYL COMPOUNDS USEFUL AS INHIBITORS OF FARNESYL-PROTEIN TRANSFERASE” (SCHERING CORPORATION, priority 1996, dated 1998).
# Read-outs that look alike come from different tables or passages of the source.
# Molecular target: T1, partially purified rat brain famesyl protein transferase (FPT) (Rattus norvegicus, UniProt Q02293+Q04631)
# T1 construct: partially purified rat brain famesyl protein transferase (FPT); from tissue; host or cells: rat brain
# Test: In vitro enzyme assay: inhibition of Ras-CVLS farnesylation by farnesyl protein transferase (FPT)
# Type: biochemical
# Procedure: • 1. In vitro enzyme assays: FPT IC50 (inhibition of famesyl protein transferase, in vitro enzyme assay) are determined by the methods disclosed in […] or WO 95/10516. […] Cell-based assay. COS IC50 values refer to the COS cells activity inhibition of Ras processing, are determined by the methods disclosed in […] or WO 95/10516.
# T1 sequence (Q02293 whole entry, one chain of several): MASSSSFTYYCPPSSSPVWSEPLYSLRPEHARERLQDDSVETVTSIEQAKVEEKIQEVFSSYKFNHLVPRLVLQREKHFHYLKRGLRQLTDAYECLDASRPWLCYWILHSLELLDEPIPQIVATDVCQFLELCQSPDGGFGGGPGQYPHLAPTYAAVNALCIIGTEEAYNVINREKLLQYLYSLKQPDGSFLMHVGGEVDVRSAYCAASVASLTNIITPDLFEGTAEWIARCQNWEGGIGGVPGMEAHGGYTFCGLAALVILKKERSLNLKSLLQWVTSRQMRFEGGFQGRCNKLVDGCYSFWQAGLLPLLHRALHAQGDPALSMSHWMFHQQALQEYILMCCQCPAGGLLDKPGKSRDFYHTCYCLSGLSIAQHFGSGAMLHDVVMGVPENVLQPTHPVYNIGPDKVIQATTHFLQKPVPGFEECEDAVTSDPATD
compound,measurement,setting,value
"O=C(NCCc1ccccn1)C1CCN(C2c3ccc(Cl)cc3CCc3cc(Br)cnc32)CC1 (racemic) [Example 6, 1-(3-Bromo-8-chloro-6,11-dihydro-5H-benzo[5,6]cyclohepta[1,2-b]pyridin-11-yl)-N-(2-pyridiriylethyl)-4-piperidinecarboxamide]",inhibition at 1.1 µM,read-out: FPT Inhibition,9%
"NC(=O)N1CCC(NC(=O)C2CCN(C3c4ccc(Cl)cc4CCc4cc(Br)cnc43)CC2)CC1 (racemic) [Example 7, 1-(3-Bromo-8-chloro-6,11-dihydro-5H-benzo[5,6]cyclohepta[1,2-b]pyridin-11-yl)-N-[4-(N-carboxamidopiperidinyl)]-4-piperidinecarboxamide]",inhibition at 0.36 µM,@ 0.36 µM,15%
"NC(=O)N1CCC(CNC(=O)C2CCN(C3c4ccc(Cl)cc4CCc4cc(Br)cnc43)CC2)CC1 (racemic) [Example 8, 1-(3-Bromo-8-chloro-6,11-dihydro-5H-benzo[5,6]cyclohepta[1,2-b]pyridin-11-yl)-N-[4-(N-carboxamidopiperidinyl)methyl]-4-piperidinecarboxamide]",inhibition at 1.04 µM,@ 1.04 µM,41%
NCC1CCN(C(=O)C2CCN(C3c4ccc(Cl)cc4CCc4cc(Br)cnc43)CC2)CC1 (racemic) [Example 9 Step B],inhibition at 0.38 µM,"@ 0.38 µM, read-out: FPT Inhibition",16%
"O=C(NCc1cccnc1)C1CCCN(C2c3ccc(Cl)cc3CCc3cc(Br)cnc32)C1 (single isomer, unassigned) [Example 10 Isomer A, 1-(3-Bromo-8-chloro-6,11-dihydro-5H-benzo[5,6]cyclohepta[1,2-b]pyridin-11-yl)-N-(3-pyridinylmethyl)-3-piperidinecarboxamide]",inhibition at 1.14 µM,read-out: FPT Inhibition,6.1%
"O=C(NCc1cccnc1)C1CCCN(C2c3ccc(Cl)cc3CCc3cc(Br)cnc32)C1 (single isomer, unassigned) [Example 10 Isomer B, 1-(3-Bromo-8-chloro-6,11-dihydro-5H-benzo[5,6]cyclohepta[1,2-b]pyridin-11-yl)-N-(3-pyridinylmethyl)-3-piperidinecarboxamide]",IC50,,194 nM
"O=C(NCc1cccnc1)C1CCCN(C2c3ccc(Cl)cc3CCc3cc(Br)cnc32)C1 (single isomer, unassigned) [Example 10 Isomer C, 1-(3-Bromo-8-chloro-6,11-dihydro-5H-benzo[5,6]cyclohepta[1,2-b]pyridin-11-yl)-N-(3-pyridinylmethyl)-3-piperidinecarboxamide]",IC50,,179 nM
"O=C(NCc1cccnc1)C1CCCN(C2c3ccc(Cl)cc3CCc3cc(Br)cnc32)C1 (single isomer, unassigned) [Example 10 Isomer D, 1-(3-Bromo-8-chloro-6,11-dihydro-5H-benzo[5,6]cyclohepta[1,2-b]pyridin-11-yl)-N-(3-pyridinylmethyl)-3-piperidinecarboxamide]",IC50,,187 nM
"O=C(NCc1ccncc1)[C@@H]1CCCCN1C1c2ccc(Cl)cc2CCc2cc(Br)cnc21 (single isomer, unassigned) [Example 12, 1-(3-Bromo-8-chloro-6,11-dihydro-5H-benzo[5,6]cyclohepta[1,2-b]pyridin-11-yl)-N-(4-pyridinylmethyl)-2S-piperidinecarboxamide]",inhibition at 1.1 µM,"@ 1.1 µM, read-out: FPT Inhibition",18%
"O=C(NCc1ccncc1)[C@@H]1CCCCN1C1c2ccc(Cl)cc2CCc2cc(Br)cnc21 (single isomer, unassigned) [Example 13, 1-(3-Bromo-8-chloro-6,11-dihydro-5H-benzo[5,6]cyclohepta[1,2-b]pyridin-11-yl)-N-(4-pyridinylmethyl)-2S-piperidinecarboxamide]",FPT Inhibition,@ 1.1 µM,21%
"O=C(NCc1cccnc1)C1CCCN(C2c3ncc(Br)cc3CCc3cc(Cl)cc(Br)c32)C1 (single isomer, unassigned) [Example 17 Isomer A, 1-(3,10-Dibromo-8-chloro-6,11-dihydro-5H-benzo[5,6]cyclohepta[1,2-b]pyridin-11-yl)-N-(3-pyridinylmethyl)-3-piperidinecarboxamide]",IC50,,< 9.9 nM
